The SangsterLogP compilation

Experiment: method code SF-AS, from DOI: 10.1111/j.2042-7158.1993.tb07096.x, PMID: 7901370
Settings: pH 7.4

logD	SMILES
0.2	CCNC(=S)NS(=O)(=O)c1cnccc1NC1CCCCC1
1.3	CC(C)NC(=S)NS(=O)(=O)c1cnccc1NC1CCCCCCC1
1.81	O=S(=O)(NC(=S)NC1CCCCC1)c1cnccc1NC1CCCCCC1
1.25	O=S(=O)(NC(=S)N1CCCCC1)c1cnccc1NC1CCCCCC1
2.14	O=S(=O)(NC(=S)NC1CCCCC1)c1cnccc1NC1CCCCCCC1
1.6	O=S(=O)(NC(=S)N1CCCCC1)c1cnccc1NC1CCCCCCC1
0.96	CCNC(=S)NS(=O)(=O)c1cnccc1NC1CCCCCCC1
0.85	O=S(=O)(NC(=S)N1CCCCC1)c1cnccc1NC1CCCCC1
